US6369101B1, “Therapeutic method to treat herpes virus infection” (Regents of the University of Minnesota, priority 1999, dated 2002)
In brackets after ≈: the same amount, converted by molar mass. Entries after “also recorded” stand apart in the source; their conditions may differ.

What was measured:
[1] = test system: Primary human foreskin fibroblast cells (HFF); assay: Cell proliferation assay (cytotoxicity) in HFF cells; format: cell-based; settings: HFF cells; solution conc. per compound (ng/ml) (Acyclovir 250); 2.0 ml dose
Method: (§1) Human laryngeal epithelial carcinoma cells (HEp-2, ATCC, Rockville, Md.) were used for testing of antiviral compounds by cytopathic effect (CPE) inhibition and plaque reduction assay. […] HEp-2, African green monkey kidney cells (Vero, ATCC), HFF and primary rabbit kidney cells were used to determine the cytotoxic effect of compounds of formula I. These cells were propagated in Dulbeco's modified Eagle's medium (DMEM) (Sigma, USA) supplemented with 10% inactivated fetal calf serum (FCS), 25 mM HEPES, 0.2% sodium bicarbonate and 1% penicillin/-streptomycin at 37° C. in the presence of 5% CO2.
(§2) HFF, Vero and HEp-2 cells were seeded in 24-well tissue culture plates at a concentration of […] in DMEM containing 10% FCS and incubated for 24 hours at 37° C. in the presence of 5% CO2. To the monolayer of these cells 0.5, 1.0, 1.5 and 2.0 ml of solution of antiviral compounds were added in the respective wells in duplicate and the cells were then incubated in a 5% CO2 incubator at 37° C. for 72 hours. The cells were observed daily for any change in morphology. […] At the end of this time, the media-drug solution was removed and the cells washed. One ml of 0.25% trypsin was added to each well and incubated until the cells start to come off of the plate. The cells-media mixture was then pipetted up and down several times to resuspend the cells and 0.2 ml of the cell suspension was added to 9.8 ml of trypan blue and cells were counted using hemocytometer. Each sample was counted three times with three replicate wells per sample.

[2] = as above; format: cell-based, human; settings: primary human foreskin fibroblast (HFF) cells; Human foreskin fibroblast cells; reduces growth of uninfected cells by 50%
Method: as §1, §2

HSV-2 (strain G) = assay: Plaque reduction assay, HSV-2 strain G in HEp-2 cells; format: cell-based, herpes simplex virus type 2; settings: conc. per compound (ng/ml) (Acyclovir 250), HSV-2 virus control 47
Method: HEp-2 cells were grown to monolayer in 24 well tissue culture plates in DMEM containing 10% fetal calf serum at 37° C. for 24-36 hours in the presence of 5% CO2. The monolayer of HEp-2 cells was infected with 0.1 ml of HSV- 1 (strain F) or HSV-2 (strain G) containing 100 pfu. The viruses were allowed to adsorb for 1 hour at 37° C. in the presence of 5% CO2. All wells containing virus infected cells except virus control were overlaid with 0.9 ml of DMEM and 1 ml of test compound. The virus control and cell control received DMEM only. All microtiter plates were incubated at 37° C. in the presence of 5% CO2 and observed twice daily for 72 hours for viral CPE. At the end of the experiment, plates were stained with 0.1% crystal violet and the results were quantified by counting plaque forming units.

HSV-1 strain F = assay: CPE inhibition, HSV-1 strain F in HEp-2 cells; further: key: +++ = Complete cytopathic effect; ++ = Moderate cytopathic effect; + = Minimum cytopathic effect; − = No cytopathic effect; format: cell-based, herpes simplex virus type 1; settings: conc. per compound (ng/ml)
From the text: (§3) Human laryngeal epithelial carcinoma cells (HEp-2, ATCC, Rockville, Md.) were used for testing of antiviral compounds by cytopathic effect (CPE) inhibition and plaque reduction assay. Primary human foreskin fibroblast cells (HFF) obtained from Dr. E. R. Kern (Department of Pediatrics, University of Alabama Medical School, 309 Bevill Biomedical Research Building, 845 19th Street South, Birmingham, Ala., 35294-2170), were used for cytopathic effect (CPE) inhibition assay. HEp-2, African green monkey kidney cells (Vero, ATCC), HFF and primary rabbit kidney cells were used to determine the cytotoxic effect of compounds of formula I. These cells were propagated in Dulbeco's modified Eagle's medium (DMEM) (Sigma, USA) supplemented with 10% inactivated fetal calf serum (FCS), 25 mM HEPES, 0.2% sodium bicarbonate and 1% penicillin/-streptomycin at 37° C. in the presence of 5% CO2.
(§4) The antiviral activity of the test compounds was determined against HSV-1 strain F, HSV-2 strain G (ATCC), HSV-1 strain E-377 and HSV-2 strain MS (Dr. E. R. Kern, see above), CMV strain AD 169 (NIH), HCMV (NIH), MCMV (NIH), and VZV strain Ellen (NIH). Highly infective virus stocks of HSV-1 and HSV-2 were prepared by infecting a confluent monolayer of HEp-2 (ATCC) or HFF in 150 cm^2 plastic tissue culture flasks (Falcon, USA) at a multiplicity of infection of 0.5 in DMEM supplemented with 10% inactivated fetal calf serum and 1% penicillin/streptomycin at 37° C. in the presence of 5% CO2. The infected cells were disrupted through three freeze/thaw cycles, and viruses were clarified from large cell debris by low speed centrifugation at 3000 rpm for 10 minutes. The virus suspension was separated, aliquoted and stored at −80° C. until assayed or used for animal infection. The stock HSV-1 (E377) and HSV-2 (MS strain) contained 3.5×10^8 and 1.1×10^7 pfu/ml respectively.
(§5) Low passage HFF cells were seeded into 96-well tissue culture plates 24 hours prior to use at a cell concentration of 2.5×10^4 cells per ml in 0.2 ml of DMEM supplemented with 10% fetal calf serum. After 24 hours of incubation at 37° C. in the presence of 5% CO2, medium was removed and the test compounds were diluted two-fold in DMEM in the 96-well tissue culture plate containing monolayer. […] For both HSV-1 and HSV-2 assays, the virus concentration utilized was 1000 pfu/ml and for HCMV, MCMV, and VZV assay 2500 pfu/ml were used. The plates were then incubated at 37° C. in the presence of 5% CO2 for two to three days for HSV-1 and HSV-2, 10 days for VZV and 14 days for HCMV and MCMV. The virus induced cytopathic effect (CPE) was monitored microscopically every day. CPE of HSV-1 was recognized by cell rounding and clumping, while HSV-2 formed large syncytia along with rounding and clumping of cells. […] EC50s were estimated from graphical plots of percent CPE against the concentration of the test compounds. The EC50s for each compound are the mean of EC50s for three or more independent experiments. After three days of incubation period, media was aspirated and the cells stained with a 0.1% crystal violet solution for 30 minutes. The stain was then removed and the plates were rinsed with tap water, air dried and retained.

[3] = Cytotoxic effect in Vero cell line; format: cell-based, African green monkey; settings: African green monkey, Vero cells; Vero cell line
Method: as §1, §2

Vero cells = assay: Cytotoxic effect in Vero cell line; format: cell-based, African green monkey; settings: African green monkey kidney (Vero) cells
Method: as §1, §2

[4] = Cytotoxic effect in primary rabbit kidney cells; format: cell-based; settings: primary rabbit kidney cells; Primary Rabbit Kidney cell line
Method: as §1, §2

[5] = test system: Primary Rabbit Kidney cells; assay: Cytotoxic effect in primary rabbit kidney cells; format: cell-based; settings: primary rabbit kidney cells
Method: as §1, §2

HSV-2 strain MS = assay: CPE inhibition assay, HSV-2 MS in human foreskin fibroblast cells; format: cell-based, herpes simplex virus type 2; on Qualitative CPE at 2.0 ml dose HSV-2 MS: key: +++ = Complete cytopathic effect; ++ = Moderate cytopathic effect; + = Minimum cytopathic effect; − = No cytopathic effect
Method: (§6) Stock solutions of the compounds used for the testing of antiviral activity against HSV-1 and HSV-2 were prepared in distilled water, filtered through 0.2 μm filter (Acrodisco®, Gelman Sciences, USA) and stored at room temperature until used.
as §3, §4, §5

HSV-1 strain E-377 = assay: CPE inhibition assay, HSV-1 E377 in human foreskin fibroblast cells; format: cell-based, herpes simplex virus type 1; on Qualitative CPE at 2.0 ml dose HSV-1 E377: key: +++ = Complete cytopathic effect; ++ = Moderate cytopathic effect; + = Minimum cytopathic effect; − = No cytopathic effect
Method: as §6, §3, §4, §5

HSV-2 strain G = assay: CPE inhibition, HSV-2 strain G in HEp-2 cells; further: key: +++ = Complete cytopathic effect; ++ = Moderate cytopathic effect; + = Minimum cytopathic effect; − = No cytopathic effect; format: cell-based, herpes simplex virus type 2; settings: conc. per compound (ng/ml)
From the text: as §3, §4, §5

[6] = test system: Human laryngeal epithelial carcinoma cells (HEp-2); assay: Cytotoxicity in HEp-2 cells; format: cell-based
Method: as §1, §2

[7] = HFF cells, solution conc. per compound (ng/ml) (Acyclovir 250), 2.0 ml dose

SMILES: CC1(C)CCC23CC[C@]4(C)C(CCC5[C@@]6(C)CCC(O)C(C)(C)C6CC[C@]54C)C2C1OC3 (stereo partly drawn) [Allobetulin, 3β-hydroxy-19αH-19,28-epoxy-oleanane]
- Qualitative Cytotoxic Effect at 2.0 ml dose [1]: −
- CC50 at 72 h [2]: 0.3 µg/mL (≈ 0.678 µM)
- Plaque Reduction Assay Average pfu/10^5 Cells HSV-2 Strain G (HSV-2 (strain G)): 17 pfu/10^5 Cells
- Cytopathic Effect (CPE) Inhibition HSV-1 Strain F (HSV-1 strain F): ++
- CC50 at 72 h [3]: 0.3 µg/mL (≈ 0.678 µM)
- cytotoxicity (in words) (Vero cells): generally not toxic
- CC50 at 72 h [4]: > 0.3 µg/mL
- cytotoxicity (in words) [5]: No cytotoxicity; also recorded: generally not toxic
- EC50 HSV-2 MS (HSV-2 strain MS; CPE inhibition in HFF cells): 0.225 µg/mL (≈ 0.508 µM)
- Qualitative CPE at 2.0 ml dose HSV-2 MS (HSV-2 strain MS; [7]): ++
- EC50 (HSV-2 strain MS; Human alphaherpesvirus 2, HFF, CPE inhibition in HFF cells, read-out: EC50 HSV-2 MS): ~0.225 µg/mL (≈ 0.508 µM)
- EC50 HSV-1 E377 (HSV-1 strain E-377; CPE inhibition in HFF cells): 0.3 µg/mL (≈ 0.678 µM)
- Qualitative CPE at 2.0 ml dose HSV-1 E377 (HSV-1 strain E-377; [7]): +++
- EC50 (HSV-1 strain E-377; Human alphaherpesvirus 1, HFF, CPE inhibition in HFF cells, read-out: EC50 HSV-1 E377): ~0.3 µg/mL (≈ 0.678 µM)
- Cytopathic Effect (CPE) Inhibition HSV-2 Strain G (HSV-2 strain G): ++
- cytotoxicity (in words) ([6]; HEp-2 (human epithelial) cells): less cytotoxicity; also recorded: generally not toxic
- Cell Cytotoxicity ([6]; HEp-2 cells, conc. per compound (ng/ml)): −
